Like-named read-outs stand apart in the source and are kept apart here.
Experiments:
[1] = tested on: A. baumannii ATCC 17978 (SEN) and A. baumannii ATCC BAA-1605 (MDR); test: Frequency-of-resistance (FoR) assay, relative MIC of mutants; assay type: cell-based, Acinetobacter baumannii; conditions: for MIC: Acinetobacter baumannii, read-out: MIC of evolved line, Acinetobacter baumannii ATCC 17978 (AB-SEN)
Method: (§1) The susceptibility of antibiotics to resistance development was evaluated in two strains of each bacterial species: a multidrug-resistant strain and an antibiotic-sensitive strain of Escherichia coli, Klebsiella pneumoniae, Acinetobacter baumannii, and Pseudomonas aeruginosa. To explore first-step resistance, we previously used a standard protocol for spontaneous frequency-of-resistance analysis (FoR assay) at multiple concentrations of each antibiotic[10],[28],[31]–[33]. […] For all other combinations, approximately 10^10 bacterial cells were exposed to one of each antibiotic on agar plates for two days at concentrations where the given strain is susceptible. We examined resistance levels by contrasting the minimum inhibitory concentration (MICs) of the mutated strains to the original wild-type bacterial strain (i.e., relative MIC).
(§2) To estimate the frequency of spontaneous mutations that confer resistance in a microbial population, we conducted a frequency of resistance (FoR) assay following established protocols[10],[31]–[33]. […] Prior to plating, bacteria were grown overnight in MHB medium at 37 °C and 250 RPM, then centrifuged and washed in MHB. All experiments were performed in triplicate, and plates were incubated at 37 °C for 48 hours. Total colony-forming units (CFUs) were determined by plating appropriate dilutions onto antibiotic-free MHB agar. Resistance frequencies were calculated by dividing the number of resistant colonies by the initial viable cell count. From the plates with the highest antibiotic concentration, ten colonies were selected for MIC determination and whole-genome sequencing.
(§3) A robotic liquid handling system was used to automatically prepare a 11 to 16-step serial dilution in 384-well microtiter plates (Greiner). A final concentration of 5 × 10^5 bacterial cells per mL were inoculated into each well containing 60 µL MHB medium. Bacterial cultures were incubated at 37 °C with continuous shaking (Infors shaker, 900 rpm with 3 mm throw) for 18 hours (2 replicates from each). Cell growth was monitored by measuring the optical density (OD600 values, using Biotek Synergy microplate reader). MIC was defined as the antibiotic concentration of complete growth inhibition (i.e., OD600 < 0.05). Relative MIC was calculated as follows:1 relativeMIC=MICevolved/MICancestor […]
(§4) Supplementary Figure 3. Resistance levels following the frequency of resistance assay across bacterial strains. The level of resistance was measured as the fold change in relative MIC between evolved and ancestral strains. Data are grouped by bacterial strain (A. baumannii (AB), E. coli (EC), K. pneumoniae (KP), and P. aeruginosa (PA)) and categorized as either multidrug-resistant (MDR) or sensitive (SEN). Each data point represents a laboratory evolved line, and boxplots show the median, first and third quartiles, with whiskers indicating the 5th and 95th percentiles. […]
(§5) analysis was performed using two-sided Dunn’s post-hoc test with Benjamini-Hochberg correction for multiple comparisons (**/ * indicates p < 0.01/ 0.05). For detailed information on antibiotic and bacterial species, see Supplementary Table 1. For mode of action groups, refer to Table 1. Source data are provided as a Source Data file.

[2] = tested on: K. pneumoniae ATCC 10031 (SEN) and K. pneumoniae ATCC 700603 (MDR); test: microbe, parasite or virus in culture; assay type: cell-based, Klebsiella pneumoniae; conditions: for MIC: across three biological replicates
Method: This study focused on multiple bacterial strains, as follows. For the FoR and ALE experiments, 2 strains per species were chosen: E. coli ATCC 25922, K. pneumoniae ATCC 10031, A. baumannii ATCC 17978, and P. aeruginosa ATCC BAA-3107 as sensitive (SEN) strains, and E. coli NCTC13846, K. pneumoniae ATCC 700603, A. baumannii ATCC BAA-1605 and P. aeruginosa LESB58 as multi-drug resistant (MDR) strains. Functional metagenomic screens were performed with E. coli ATCC 25922 and K. pneumoniae ATCC 10031 strains. To determine the dose-kill properties of the different antibiotics, an E. coli strain (ATCC 25922) expressing a yellow fluorescent protein (pZS2R, YFP, CHL^R) and a red fluorescent protein (pZS2R, mCherry, CHL^R) was used.
Unless otherwise indicated, cation-adjusted Mueller-Hinton Broth 2 (MHB, Millipore) medium was used throughout the study, except for SCH79797 (SCH).
A robotic liquid handling system was used to automatically prepare a 11 to 16-step serial dilution in 384-well microtiter plates (Greiner). A final concentration of 5 × 10^5 bacterial cells per mL were inoculated into each well containing 60 µL MHB medium. Bacterial cultures were incubated at 37 °C with continuous shaking (Infors shaker, 900 rpm with 3 mm throw) for 18 hours (2 replicates from each). Cell growth was monitored by measuring the optical density (OD600 values, using Biotek Synergy microplate reader). MIC was defined as the antibiotic concentration of complete growth inhibition (i.e., OD600 < 0.05). Relative MIC was calculated as follows:1 relativeMIC=MICevolved/MICancestor

[3] = tested on: K. pneumoniae ATCC 10031 (SEN) and K. pneumoniae ATCC 700603 (MDR); test: Frequency-of-resistance (FoR) assay, relative MIC of mutants; assay type: cell-based, Klebsiella pneumoniae; conditions: for Relative MIC / MIC of evolved line: Klebsiella pneumoniae ATCC 10031 (KP-SEN); for MIC: Klebsiella pneumoniae
Method: as §1, §2, §3, §4, §5

[4] = Klebsiella pneumoniae ATCC 10031 (KP-SEN), ancestor strain, sheet fig 2a

## CC(C)c1ccc(Cn2ccc3c4c(N)nc(NC5CC5)nc4ccc32)cc1 [SCH79797]
[1]; Acinetobacter baumannii ATCC 17978 (AB-SEN), evolved line 1
  MIC of evolved line: 8 µg/mL
[1]; Acinetobacter baumannii ATCC 17978 (AB-SEN), evolved line 2
  MIC of evolved line: 8 µg/mL
[1]; Acinetobacter baumannii ATCC 17978 (AB-SEN), evolved line 3
  MIC of evolved line: 8 µg/mL
[1]; Acinetobacter baumannii ATCC 17978 (AB-SEN), evolved line 1 versus ancestor
  Relative MIC: 2
[1]; Acinetobacter baumannii ATCC 17978 (AB-SEN), evolved line 2 versus ancestor
  Relative MIC: 2
[1]; Acinetobacter baumannii ATCC 17978 (AB-SEN), evolved line 3 versus ancestor
  Relative MIC: 2
[1]; Acinetobacter baumannii ATCC BAA 1605 (AB-MDR), evolved line 2
  MIC of evolved line: 4 µg/mL
[1]; Acinetobacter baumannii ATCC BAA 1605 (AB-MDR), evolved line 1
  MIC of evolved line: 2 µg/mL
[1]; Acinetobacter baumannii ATCC BAA 1605 (AB-MDR), evolved line 1 versus ancestor
  Relative MIC: 1
[1]; Acinetobacter baumannii ATCC BAA 1605 (AB-MDR), evolved line 2 versus ancestor
  Relative MIC: 1
[1]; Acinetobacter baumannii ATCC BAA 1605 (AB-MDR), evolved line 3
  MIC of evolved line: 4 µg/mL
[1]; Acinetobacter baumannii ATCC BAA 1605 (AB-MDR), evolved line 3 versus ancestor
  Relative MIC: 1
[1]; FoR assay, Acinetobacter baumannii ATCC 17978 (AB-SEN), evolved line 1
  Relative MIC: 2
[1]; FoR assay, Acinetobacter baumannii ATCC 17978 (AB-SEN), evolved line 2
  Relative MIC: 2
[1]; FoR assay, Acinetobacter baumannii ATCC 17978 (AB-SEN), evolved line 3
  Relative MIC: 2
[1]; FoR assay, Acinetobacter baumannii ATCC BAA 1605 (AB-MDR), evolved line 1
  Relative MIC: 1
[1]; FoR assay, Acinetobacter baumannii ATCC BAA 1605 (AB-MDR), evolved line 2
  Relative MIC: 1
[1]; FoR assay, Acinetobacter baumannii ATCC BAA 1605 (AB-MDR), evolved line 3
  Relative MIC: 1
[2]; [4]
  MIC of ancestor: 4 µg/mL
[2]; Klebsiella pneumoniae ATCC 10031 (KP-SEN)
  MIC: 4 µg/mL
[2]; Klebsiella pneumoniae ATCC 700603 (KP-MDR)
  MIC: 32 µg/mL
[2]; ancestor KP-SEN (Klebsiella pneumoniae ATCC 10031)
  MIC of ancestor: 4 µg/mL
[3]; FoR assay, evolved line 1
  Relative MIC: 1
[3]; FoR assay, evolved line 2
  Relative MIC: 1
[3]; FoR assay, evolved line 3
  Relative MIC: 1
[3]; evolved line 1
  MIC of evolved line: 4 µg/mL
[3]; evolved line 2
  MIC of evolved line: 4 µg/mL
[3]; evolved line 3
  MIC of evolved line: 4 µg/mL
[3]; evolved line 1 versus ancestor
  Relative MIC: 1
[3]; evolved line 2 versus ancestor
  Relative MIC: 1
[3]; evolved line 3 versus ancestor
  Relative MIC: 1

## COc1c(N2C[C@@H]3CCCN[C@@H]3C2)c(F)cc2c(=O)c(C(=O)O)cn(C3CC3)c12 [Moxifloxacin]
[1]; evolved line 1
  MIC: 0.5 µg/mL
[1]; evolved line 2
  MIC: 2 µg/mL
[1]; evolved line 3
  MIC: 1 µg/mL
[2]; Klebsiella pneumoniae ATCC 10031 (KP-SEN), ancestor
  MIC of ancestor: 0.00781 µg/mL
[2]; [4]
  MIC of ancestor: 0.00781 µg/mL
[2]; Klebsiella pneumoniae ATCC 700603 (KP-MDR), ancestor
  MIC of ancestor: 1 µg/mL
[2]; Klebsiella pneumoniae ATCC 700603 (KP-MDR), ancestor strain, sheet fig 2a
  MIC of ancestor: 1 µg/mL
[2]; Klebsiella pneumoniae, Klebsiella pneumoniae ATCC 10031 (KP-SEN)
  MIC: 0.00781 µg/mL
[2]; Klebsiella pneumoniae, Klebsiella pneumoniae ATCC 700603 (KP-MDR)
  MIC: 1 µg/mL
[3]; read-out: MIC of evolved line, Klebsiella pneumoniae ATCC 10031 (KP-SEN), evolved line 1
  MIC: 0.25 µg/mL
[3]; read-out: MIC of evolved line, Klebsiella pneumoniae ATCC 700603 (KP-MDR), evolved line 1
  MIC: 4 µg/mL
[3]; read-out: MIC of evolved line, Klebsiella pneumoniae ATCC 700603 (KP-MDR), evolved line 2
  MIC: 4 µg/mL
[3]; read-out: MIC of evolved line, Klebsiella pneumoniae ATCC 700603 (KP-MDR), evolved line 3
  MIC: 4 µg/mL
